According to paper PMC13054725 (2026):

Tests used:
[1] = tested on: Dopa-A′ (DNA, aptamer) CGACGCCAGTTTGAAGGTTCGTTCGCAGGTGTGGAGTGACGTCG; assay: ITC; conditions: PBS 1x, 2 mM Mg2+; 1x PBS, 2 mM MgCl2, 25 °C; one-site fit
[2] = tested on: Dopa-A (DA-A) (DNA, aptamer) GACGACTCCAGTTTGAAGGTTCGTTCGCAGGTGTGGAGTGAAGTCGTC; assay: ITC; conditions: PBS 1x, 2 mM Mg2+; 1x PBS, 2 mM MgCl2, 25 °C; one-site fit

In the case of `NCCc1ccc(O)c(O)c1`, the Kd [1] is reported as 3.5 µM and the Kd [2] is reported as 2.7 µM.
